The text below walks through data of article PMC5119973 (Cancer Medicine, 2016).

One experiment deals with T1, HIPK4 (Homo sapiens, UniProt Q8NE63).
T1 construct: purchased DiscoveRx (KINOMEscan service)
T1 sequence (Q8NE63 1-616): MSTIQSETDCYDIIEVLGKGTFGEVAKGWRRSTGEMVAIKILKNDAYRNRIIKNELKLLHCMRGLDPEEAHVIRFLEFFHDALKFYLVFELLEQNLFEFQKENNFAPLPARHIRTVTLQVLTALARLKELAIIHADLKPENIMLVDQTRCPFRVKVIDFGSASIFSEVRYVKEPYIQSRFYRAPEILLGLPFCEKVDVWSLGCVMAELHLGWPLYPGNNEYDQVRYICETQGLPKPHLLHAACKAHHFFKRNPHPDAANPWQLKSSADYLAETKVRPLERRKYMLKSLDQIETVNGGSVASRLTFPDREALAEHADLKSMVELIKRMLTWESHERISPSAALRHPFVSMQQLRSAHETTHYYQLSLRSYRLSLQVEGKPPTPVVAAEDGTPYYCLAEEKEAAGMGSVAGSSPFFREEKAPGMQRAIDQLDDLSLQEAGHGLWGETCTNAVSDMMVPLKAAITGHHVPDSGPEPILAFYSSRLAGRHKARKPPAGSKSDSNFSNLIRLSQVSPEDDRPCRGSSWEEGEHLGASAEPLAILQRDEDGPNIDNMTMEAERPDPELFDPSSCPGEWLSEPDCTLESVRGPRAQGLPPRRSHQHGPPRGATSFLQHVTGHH
Nature of the experiment: KINOMEscan active-site competitive binding assay. As to conditions: slash = two separate measurements.

Another experiment has as its target T2, MEK5 (Homo sapiens, UniProt Q13163).
T2 construct: purchased DiscoveRx (KINOMEscan service)
T2 sequence (Q13163 1-448): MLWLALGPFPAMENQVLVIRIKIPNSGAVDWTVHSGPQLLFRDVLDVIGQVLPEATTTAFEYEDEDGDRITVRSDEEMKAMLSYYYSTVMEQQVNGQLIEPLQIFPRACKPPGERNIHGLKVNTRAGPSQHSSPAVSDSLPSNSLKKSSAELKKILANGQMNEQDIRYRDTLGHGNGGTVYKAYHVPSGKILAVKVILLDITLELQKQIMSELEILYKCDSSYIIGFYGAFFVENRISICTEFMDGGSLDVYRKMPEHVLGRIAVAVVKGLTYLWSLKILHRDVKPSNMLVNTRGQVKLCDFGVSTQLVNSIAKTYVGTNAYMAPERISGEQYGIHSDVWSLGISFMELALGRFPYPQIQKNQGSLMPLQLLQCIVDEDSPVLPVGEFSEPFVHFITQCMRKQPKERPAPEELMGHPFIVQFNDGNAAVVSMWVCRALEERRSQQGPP
Nature of the experiment: KINOMEscan active-site competitive binding assay.

The next experiment has as its target T3, MKNK2 (Homo sapiens, UniProt Q9HBH9).
T3 construct: purchased DiscoveRx (KINOMEscan service)
Nature of the experiment: KINOMEscan active-site competitive binding assay. As to conditions: slash = two separate measurements.

For another experiment, the target named is T4, SLK (Homo sapiens, UniProt Q9H2G2).
T4 construct: purchased DiscoveRx
T4 sequence (Q9H2G2 whole entry): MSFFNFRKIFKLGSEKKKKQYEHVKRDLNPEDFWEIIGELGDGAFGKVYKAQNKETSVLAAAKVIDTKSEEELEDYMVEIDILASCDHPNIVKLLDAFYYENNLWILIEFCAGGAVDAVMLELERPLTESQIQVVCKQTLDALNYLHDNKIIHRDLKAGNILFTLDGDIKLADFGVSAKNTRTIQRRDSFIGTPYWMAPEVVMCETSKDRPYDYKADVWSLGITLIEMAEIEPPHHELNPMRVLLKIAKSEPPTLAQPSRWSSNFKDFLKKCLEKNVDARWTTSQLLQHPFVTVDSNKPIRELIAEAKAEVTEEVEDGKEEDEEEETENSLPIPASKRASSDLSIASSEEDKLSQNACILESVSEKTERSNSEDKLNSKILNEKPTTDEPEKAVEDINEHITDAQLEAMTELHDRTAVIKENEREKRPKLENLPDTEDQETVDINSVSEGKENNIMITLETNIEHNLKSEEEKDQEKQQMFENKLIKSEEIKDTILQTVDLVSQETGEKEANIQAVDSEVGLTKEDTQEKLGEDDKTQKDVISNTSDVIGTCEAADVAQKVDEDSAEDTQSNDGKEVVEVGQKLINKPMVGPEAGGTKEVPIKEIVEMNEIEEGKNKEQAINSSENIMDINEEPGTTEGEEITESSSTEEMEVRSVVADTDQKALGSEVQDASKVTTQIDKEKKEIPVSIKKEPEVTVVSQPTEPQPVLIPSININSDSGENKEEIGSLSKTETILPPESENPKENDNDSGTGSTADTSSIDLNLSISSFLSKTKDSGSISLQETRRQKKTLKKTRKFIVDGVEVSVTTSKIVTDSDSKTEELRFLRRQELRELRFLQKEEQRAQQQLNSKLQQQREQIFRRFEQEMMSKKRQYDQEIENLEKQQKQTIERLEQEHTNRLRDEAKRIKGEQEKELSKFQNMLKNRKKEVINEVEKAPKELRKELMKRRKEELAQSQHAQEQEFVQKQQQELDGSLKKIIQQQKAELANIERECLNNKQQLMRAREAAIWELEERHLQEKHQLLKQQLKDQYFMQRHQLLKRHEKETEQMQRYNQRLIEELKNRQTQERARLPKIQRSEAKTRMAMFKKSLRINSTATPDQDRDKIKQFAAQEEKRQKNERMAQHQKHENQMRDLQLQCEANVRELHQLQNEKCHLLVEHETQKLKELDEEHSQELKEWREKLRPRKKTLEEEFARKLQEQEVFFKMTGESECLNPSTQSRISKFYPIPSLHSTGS
Kind of experiment: KINOMEscan active-site competitive binding assay. As to conditions: slash = two separate measurements.

The next experiment deals with T5, TNIK (Homo sapiens, UniProt Q9UKE5).
T5 construct: purchased DiscoveRx
T5 sequence (Q9UKE5 whole entry): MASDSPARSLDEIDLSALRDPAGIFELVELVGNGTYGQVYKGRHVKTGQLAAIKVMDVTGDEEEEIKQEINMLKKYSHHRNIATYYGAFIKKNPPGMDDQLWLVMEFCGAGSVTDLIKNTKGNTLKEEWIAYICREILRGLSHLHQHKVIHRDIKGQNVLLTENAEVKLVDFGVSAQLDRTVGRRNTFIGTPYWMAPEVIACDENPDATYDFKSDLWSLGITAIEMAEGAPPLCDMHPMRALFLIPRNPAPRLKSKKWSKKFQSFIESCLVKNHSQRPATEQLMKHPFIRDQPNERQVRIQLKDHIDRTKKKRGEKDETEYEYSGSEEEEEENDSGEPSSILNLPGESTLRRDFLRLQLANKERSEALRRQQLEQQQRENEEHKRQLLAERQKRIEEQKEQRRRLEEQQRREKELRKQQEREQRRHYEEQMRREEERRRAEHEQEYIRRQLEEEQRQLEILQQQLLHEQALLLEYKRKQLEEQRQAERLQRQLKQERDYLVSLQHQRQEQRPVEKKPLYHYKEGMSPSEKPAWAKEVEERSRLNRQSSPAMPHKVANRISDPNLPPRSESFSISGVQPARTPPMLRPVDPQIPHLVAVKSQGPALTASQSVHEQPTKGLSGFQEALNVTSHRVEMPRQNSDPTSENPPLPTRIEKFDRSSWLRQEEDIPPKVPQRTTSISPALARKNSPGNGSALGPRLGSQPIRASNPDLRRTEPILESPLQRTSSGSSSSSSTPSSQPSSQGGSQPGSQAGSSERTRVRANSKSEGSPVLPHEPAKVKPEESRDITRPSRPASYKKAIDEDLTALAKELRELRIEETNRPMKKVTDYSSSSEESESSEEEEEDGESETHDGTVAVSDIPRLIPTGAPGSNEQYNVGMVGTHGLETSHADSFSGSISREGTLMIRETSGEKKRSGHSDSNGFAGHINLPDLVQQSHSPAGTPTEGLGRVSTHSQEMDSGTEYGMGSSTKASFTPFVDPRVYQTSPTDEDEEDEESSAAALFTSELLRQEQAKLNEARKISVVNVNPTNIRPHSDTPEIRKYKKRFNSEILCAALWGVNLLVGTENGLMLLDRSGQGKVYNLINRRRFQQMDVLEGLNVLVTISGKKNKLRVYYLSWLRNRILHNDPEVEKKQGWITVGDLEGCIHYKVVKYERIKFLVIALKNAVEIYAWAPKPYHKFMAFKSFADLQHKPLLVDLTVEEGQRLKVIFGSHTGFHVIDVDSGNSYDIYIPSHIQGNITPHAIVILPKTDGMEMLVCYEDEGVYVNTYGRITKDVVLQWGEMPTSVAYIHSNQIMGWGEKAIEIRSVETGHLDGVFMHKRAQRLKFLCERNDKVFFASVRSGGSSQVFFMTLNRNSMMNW
Kind of experiment: KINOMEscan active-site competitive binding assay. The following applies: slash = two separate measurements.

In the next experiment the target is T6, TRKC (Homo sapiens, UniProt Q16288).
T6 construct: purchased DiscoveRx
T6 sequence (Q16288 32-839): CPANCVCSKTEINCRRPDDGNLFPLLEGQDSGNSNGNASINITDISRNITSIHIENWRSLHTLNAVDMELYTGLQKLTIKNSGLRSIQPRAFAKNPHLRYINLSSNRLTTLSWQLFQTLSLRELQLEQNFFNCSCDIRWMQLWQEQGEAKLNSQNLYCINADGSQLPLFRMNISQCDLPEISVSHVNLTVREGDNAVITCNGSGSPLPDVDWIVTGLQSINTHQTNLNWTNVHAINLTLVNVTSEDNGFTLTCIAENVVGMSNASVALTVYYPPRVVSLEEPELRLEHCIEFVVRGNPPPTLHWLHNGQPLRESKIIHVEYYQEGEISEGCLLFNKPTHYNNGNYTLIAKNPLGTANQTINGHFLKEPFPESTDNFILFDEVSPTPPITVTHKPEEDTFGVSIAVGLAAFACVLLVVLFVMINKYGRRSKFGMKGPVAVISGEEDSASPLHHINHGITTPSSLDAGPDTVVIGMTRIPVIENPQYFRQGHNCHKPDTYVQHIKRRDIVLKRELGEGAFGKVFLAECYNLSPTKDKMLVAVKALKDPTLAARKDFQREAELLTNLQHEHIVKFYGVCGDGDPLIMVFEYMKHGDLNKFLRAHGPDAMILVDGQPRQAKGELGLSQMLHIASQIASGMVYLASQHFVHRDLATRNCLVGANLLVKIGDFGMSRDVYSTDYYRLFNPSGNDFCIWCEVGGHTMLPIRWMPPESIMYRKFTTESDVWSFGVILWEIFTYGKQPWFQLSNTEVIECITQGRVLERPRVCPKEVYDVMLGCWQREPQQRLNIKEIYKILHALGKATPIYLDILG
Nature of the experiment: KINOMEscan active-site competitive binding assay. As to conditions: slash = two separate measurements.

In a further experiment the target is T7, ZAK (Homo sapiens, UniProt Q9NYL2).
T7 construct: purchased DiscoveRx
T7 sequence (Q9NYL2 whole entry): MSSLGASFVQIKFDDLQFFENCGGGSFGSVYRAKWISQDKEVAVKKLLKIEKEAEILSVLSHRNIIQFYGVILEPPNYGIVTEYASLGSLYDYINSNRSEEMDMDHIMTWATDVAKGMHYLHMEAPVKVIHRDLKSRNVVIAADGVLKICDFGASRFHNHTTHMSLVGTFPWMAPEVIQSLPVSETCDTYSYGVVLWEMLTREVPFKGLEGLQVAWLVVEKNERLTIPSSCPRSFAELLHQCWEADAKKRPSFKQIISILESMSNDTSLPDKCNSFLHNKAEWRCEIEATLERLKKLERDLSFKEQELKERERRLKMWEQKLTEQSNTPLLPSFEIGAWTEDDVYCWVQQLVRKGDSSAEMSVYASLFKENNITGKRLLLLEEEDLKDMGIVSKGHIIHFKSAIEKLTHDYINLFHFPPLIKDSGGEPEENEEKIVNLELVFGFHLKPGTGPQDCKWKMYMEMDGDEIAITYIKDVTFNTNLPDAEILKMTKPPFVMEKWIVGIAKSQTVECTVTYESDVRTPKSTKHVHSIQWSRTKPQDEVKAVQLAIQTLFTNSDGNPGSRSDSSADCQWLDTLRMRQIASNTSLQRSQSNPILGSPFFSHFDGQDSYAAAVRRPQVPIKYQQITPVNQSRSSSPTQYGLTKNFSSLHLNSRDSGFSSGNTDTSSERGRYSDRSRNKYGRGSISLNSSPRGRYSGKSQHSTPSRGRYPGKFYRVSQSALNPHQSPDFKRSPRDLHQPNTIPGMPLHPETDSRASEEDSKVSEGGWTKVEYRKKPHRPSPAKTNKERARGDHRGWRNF
Nature of the experiment: KINOMEscan active-site competitive binding assay. The following applies: slash = two separate measurements.

In experiment [1] the test system is EGFR family kinases, the protein kinase C family, insulin and insulin‐like growth factor receptor kinases, MET, MEK family kinases (with the exception of …). Nature of the experiment: KINOMEscan active-site competitive binding assay, kinases not inhibited. The following applies: concentrations up to 1 μmol/L; data not shown.
The next experiment concerns HT‐29. Nature of the experiment: HT‐29 colon cancer xenograft in NMRI nu/nu mice. The experiment is classed as in vivo, mouse. As to conditions: end of study day 39. Here is the method:
(§1) Mouse experiments were approved by the relevant regulatory agency of the federal state of Berlin (Landesamt für Gesundheit und Soziales Berlin, approval number G0221/03). Mice were maintained in individually ventilated cages in groups of four mice per cage. They received autoclaved food and bedding (Ssniff, Soest, Germany) and acidified (pH 4.0) tap water ad libitum. The animal facility was equipped with an automatic 12 h light/dark regulation, temperature regulation at 22 ± 2°C, and relative humidity of 50 ± 10%. Female NMRI nu/nu mice (purchased from Charles River, Sulzfeld, Germany) were inoculated with 1 × 10^7 MDA‐MB‐231 or HT‐29 cells, which were allowed to grow subcutaneously to a palpable size of approximately 60–100 mm^3. […] All administrations were performed in the morning, without anesthesia. Tumor volume was determined twice per week using caliper measurements, and the volume was calculated using the formula (D × d^2)/2, with d defined as the minor axis and D as the major axis of the measurement. Tumor growth inhibition was calculated as relative tumor volume in relation to the first treatment day.
(§2) Changes in tumor volume were statistically evaluated by two‐way repeated‐measures analysis of variance, followed by Bonferroni correction, using GraphPad Prism 5 (San Diego, CA), and P < 0.05 was regarded as significant. Additionally, body weight of all mice was determined twice weekly, and the health status of the animals, including behavioral changes, was recorded daily.

A further experiment has as its system MDA‐MB‐231. Kind of experiment: MDA‐MB‐231 breast cancer xenograft in NMRI nu/nu mice. The experiment is classed as in vivo, mouse. As to conditions: for Tumor growth inhibition (%): MDA-MB-231, end of study day 40; for Tumor growth versus vehicle control: MDA‐MB‐231 model, P < 0.05 for all groups. Here is the method: as §1, §2

Several values for one entry are separate records, joined by “and”; a condition that tells them apart may be missing. Equal entries are not always repeated.

T3 sequence (Q9HBH9 whole entry): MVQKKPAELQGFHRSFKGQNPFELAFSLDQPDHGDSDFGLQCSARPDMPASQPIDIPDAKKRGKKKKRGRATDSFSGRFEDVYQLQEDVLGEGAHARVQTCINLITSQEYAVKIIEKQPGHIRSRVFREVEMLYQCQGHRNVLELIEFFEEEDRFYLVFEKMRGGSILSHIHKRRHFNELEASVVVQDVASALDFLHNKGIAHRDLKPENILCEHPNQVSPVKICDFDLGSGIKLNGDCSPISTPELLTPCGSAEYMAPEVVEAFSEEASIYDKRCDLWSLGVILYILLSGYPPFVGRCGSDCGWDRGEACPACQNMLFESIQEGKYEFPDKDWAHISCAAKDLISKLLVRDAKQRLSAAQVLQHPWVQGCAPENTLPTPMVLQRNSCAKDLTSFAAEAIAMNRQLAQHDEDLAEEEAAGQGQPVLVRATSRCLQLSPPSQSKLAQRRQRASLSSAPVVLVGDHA

In general, Kd refers to a measure of binding affinity in units of concentration. Lower therefore signals tighter binding. Take `CNC(=O)c1cc(Oc2ccc(NC(=O)Nc3ccc(Cl)c(C(F)(F)F)c3)c(F)c2)cc[n+]1[O-]` [M‐2]: the dissociation constant Kd was determined as 15 nM at HIPK4; 10 nM on MEK5; 20 nM at MKNK2; 64 nM on SLK; 41 nM at TNIK; 15 nM at TRKC. Also, on ZAK, the equilibrium dissociation constant (Kd) was 6.7 nM. Further, the Inhibition of binding result in experiment [1] is given as “No inhibition”. Besides, the “Tumor growth inhibition (%)” value in the experiment on HT‐29 (3 mg/kg/day oral for 27 days) is recorded as 35%; in the experiment with HT‐29 (10 mg/kg/day oral for 27 days), 59%; with MDA‐MB‐231 (3 mg/kg/day oral for 27 days), 49%; in the experiment with MDA‐MB‐231 (10 mg/kg/day oral for 27 days) it was 70%. The “Tumor growth versus vehicle control” value with MDA‐MB‐231 is “significantly inhibited tumor growth”.

As to `CNC(=O)c1cc(Oc2ccc(NC(=O)Nc3ccc(Cl)c(C(F)(F)F)c3)c(F)c2)ccn1` [Regorafenib, reference compound], the Kd at HIPK4 was 6.9 nM and 4.5 nM; on MEK5, 40 nM; at MKNK2, 90 nM and 64 nM; on SLK, 120 nM and 98 nM; on TNIK it was 1100 nM and 970 nM; at TRKC, 180 nM and 280 nM. The Kd at ZAK was 2.8 nM and 2 nM. In addition, the Inhibition of binding entry in experiment [1] is on record as “No inhibition”. Besides, the “Tumor growth inhibition (%)” value in the experiment with HT‐29 (3 mg/kg/day oral for 27 days) worked out at 34%; in the experiment with HT‐29 (10 mg/kg/day oral for 27 days), 67%; in the experiment on MDA‐MB‐231 (3 mg/kg/day oral for 27 days) it was 44%; in the experiment with MDA‐MB‐231 (10 mg/kg/day oral for 27 days) it was 72%. Moreover, the “Tumor growth versus vehicle control” value with MDA‐MB‐231 is recorded as “significantly inhibited tumor growth”.

Regarding `NC(=O)c1cc(Oc2ccc(NC(=O)Nc3ccc(Cl)c(C(F)(F)F)c3)c(F)c2)cc[n+]1[O-]` [M‐5], the Kd on HIPK4 amounted to 26 nM; at MEK5 it was 10 nM; on MKNK2 it was 11 nM; at SLK it was 100 nM; on TNIK it was 120 nM; on TRKC, 56 nM. Also, the Kd on ZAK was 7 nM. In addition, in experiment [1], the Inhibition of binding result is given as “No inhibition”. The “Tumor growth inhibition (%)” value in the experiment with HT‐29 (3 mg/kg/day oral for 27 days) is 13%; in the experiment with HT‐29 (10 mg/kg/day oral for 27 days) it was 66%; in the experiment on MDA‐MB‐231 (3 mg/kg/day oral for 27 days) it was 60%; with MDA‐MB‐231 (10 mg/kg/day oral for 27 days), 59%. In addition, the “Tumor growth versus vehicle control” value with MDA‐MB‐231 is on record as “significantly inhibited tumor growth”.
